Experiments:
Format in all cases: in vivo, mild to moderate AD patients
Aβ-38 = test: Phase II placebo-controlled trial, cerebrospinal fluid biomarker Aβ-38; conditions: for Change in Aβ-38 in CSF at week 52, difference from placebo group: analysis of covariance
Description: [The procedure below names another target; the source lists this target under the same test.] (§1) Maleate of Compound A was used as the test compound. • Test Example 1 Multicenter randomized double-blind phase II placebo-controlled trial for assessing effectiveness and safety of Compound A in mild to moderate AD patients Subject (selection criteria): Patients were screened in a period from 42 days before treatment assignment to the assignment based on the following selection criteria. • Patients who were probable AD and are 55 years old or older and 85 years old or younger at the time of obtaining consent of screening. • Patients with an MMSE score of 12 to 22 at the time of screening • Patients with a Modified Hachinski Ischemia Scale score of 4 or less • Patients who have been treated with a donepezil hydrochloride or rivastigmine transdermal system for at least 4 months before the baseline and with a stable dose thereof for 3 months before the baseline. • In the case of patients who have received memantine in addition to being treated with a donepezil hydrochloride or rivastigmine transdermal system, patients who have been treated with memantine for at least 4 months before the baseline and with a stable dose thereof for 3 months before the baseline. • Patients whose brain MRI or CT results match AD at the time of screening • Organization of groups: Patients matched (484 patients) were randomly divided into the following 3 groups and the trial was started. • (1) High dose group: 224 mg of a test compound (160 mg in terms of Compound A) was orally administered once a day for 4 weeks and then 448 mg of a test compound (320 mg in terms of Compound A) was orally administered once a day for 48 weeks (158 patients) • (2) Low dose group: 224 mg of a test compound (160 mg in terms of Compound A) was orally administered once a day for 52 weeks (166 patients) • (3) Placebo group: placebo was orally administered once a day for 52 weeks (158 patients) Method of assessment: Cerebrospinal Fluid Biomarker
(§2) Cerebrospinal fluid was collected by lumber puncture from subjects at baseline (within 2 weeks before the first day of administration of investigational drug) and after 52 weeks (within 2 weeks before week 52), and divided into 9-ml aliquots in polyethylene tubes and stored at −80° C. The AP-42 value in the cerebrospinal fluid was measured by sandwich ELIZA which has been designed for measurement of Aβ including 1 amino acid and 42 amino acids.
(§3) Change in cerebrospinal fluid (CSF) biomarkers at week 52 from the baseline was compared by analysis of covariance between a high dose group and a placebo group, and between a low dose group and the placebo group. For models, the baseline of cerebrospinal fluid (CSF) biomarkers was included as a covariate and the significance level was 5%.

Aβ-40 = test: Phase II placebo-controlled trial, cerebrospinal fluid biomarker Aβ-40; conditions: for Change in Aβ-40 in CSF at week 52, difference from placebo group: analysis of covariance
Description: [The procedure below names another target; the source lists this target under the same test.] as §1, §2, §3

Aβ-42 = test: Phase II placebo-controlled trial, cerebrospinal fluid biomarker Aβ-42; conditions: for Change in Aβ-42 in CSF at week 52, difference from placebo group: analysis of covariance
Description: as §1, §2, §3

Aβ = test: Phase II placebo-controlled trial, concentration of Aβ in the cerebrospinal fluid (overall statement); conditions: Compound A groups (high and low dose) vs placebo group
Experimental: […]
as §2, with “acids. […]” for “acids.”

[1] = High dose group (160 mg then 320 mg in terms of Compound A, oral, once a day)
[2] = High dose group: 160 mg in terms of Compound A orally once a day for 4 weeks, then 320 mg for 48 weeks, 24 cases
[3] = Low dose group (160 mg in terms of Compound A, oral, once a day, 52 weeks)
[4] = Low dose group: 160 mg in terms of Compound A orally once a day for 52 weeks, 17 cases

With `OC1CN(CCCOCCc2ccc3sccc3c2)C1` [Compound A, 1-(3-(2-(1-benzothiophen-5-yl)ethoxy)propyl)azetidin-3-ol] the “Change in Aβ-38 in CSF at week 52, difference from placebo group” value (Aβ-38; [1]) was 525.66 pg/mL, the “Change in concentration of Aβ-38 in CSF at week 52 from the baseline, least square means” value (Aβ-38; [2]) was 178.64 pg/mL and the “Change in Aβ-38 in CSF at week 52, difference from placebo group” value (Aβ-38; [3]) was 127.43 pg/mL. For the same molecule, the “Change in concentration of Aβ-38 in CSF at week 52 from the baseline, least square means” value (Aβ-38; [4]) was -219.58 pg/mL, the “Change in Aβ-40 in CSF at week 52, difference from placebo group” value (Aβ-40; [1]) was 1206.87 pg/mL and the “Change in concentration of Aβ-40 in CSF at week 52 from the baseline, least square means” value (Aβ-40; [2]) was 290.84 pg/mL. For the same molecule, the “Change in Aβ-40 in CSF at week 52, difference from placebo group” value (Aβ-40; [3]) was 75.71 pg/mL, the “Change in concentration of Aβ-40 in CSF at week 52 from the baseline, least square means” value (Aβ-40; [4]) was -840.32 pg/mL and the “Change in Aβ-42 in CSF at week 52, difference from placebo group” value (Aβ-42; [1]) was 32.90 pg/mL. The “Change in concentration of Aβ-42 in CSF at week 52 from the baseline, least square means” value (Aβ-42; [2]) was 11.55 pg/mL, the “Change in Aβ-42 in CSF at week 52, difference from placebo group” value (Aβ-42; [3]) was 11.65 pg/mL and the “Change in concentration of Aβ-42 in CSF at week 52 from the baseline, least square means” value (Aβ-42; [4]) was -9.70 pg/mL. For the same molecule, the “Change in the concentration of Aβ in the cerebrospinal fluid at week 52 from the baseline, compared to the placebo group” value (Aβ) was “tended to be increased in a dose dependent manner”.

Reference: patent publication US11666551B2, “Agent for reducing amount of amyloid β protein” (FUJIFILM Toyama Chemical Co., Ltd., priority 2017, dated 2023)
